According to patent US20190000850A1, “COMBINATION CANCER THERAPY” (The Regents of the University of California, priority 2015, published 2019):
Entries after “also recorded” stand apart in the source; their conditions may differ.

Assays:
CEM-R-HPRT = experiment: DNA-G biosynthesis labeling in isogenic CEM-R line; assay type: cell-based; settings: 6-TG treatment
Procedure: (§1) We utilized an isogenic cell line, CEM-R (Owen 1992), which lacks the enzymes dCK and HPRT that are necessary for the salvage pathways for DNA-G biosynthesis. CEM-R cells were engineered to express enhanced yellow fluorescent protein (CEM-R-EYFP, a negative control) and human HPRT (CEM-R-HPRT) and were confirmed by WB. The labeled media contained […] [U-^13C6]glucose to represent the de novo contribution and 5 μM [^15N5]dG to represent salvage pathways, particularly HPRT-dependent nucleobase salvaging. CEM-R-EYFP relied exclusively on the de novo pathway for the DNA-G biosynthesis. In contrast, CEM-R-HPRT utilized both de novo and nucleobase salvage pathways nearly equally.
(§2) The pMSCV-HPRT-IRES-EYFP and pMSCV-TK1-IRES-EYFP plasmids were generated by inserting the human HPRT and TK1 coding sequence into the multiple cloning sites of the MSCV-IRES-EYFP plasmid, respectively. The pMSCV-hdCK-IRES-EYFP plasmid was generated as previously described (Laing RE 2010). Amphotropic retroviruses were generated by transient co-transfection of the MSCV retroviral plasmid and pCL-10A1 packaging plasmid into Phoenix-Ampho packaging cells. To generate EL4-EYFP, EL4-TK1, CEM-R-EYFP, CEM-R-dCK and CEM-R-HPRT lines, parental cells underwent spin-fection with the respective amphotropic retrovirus and were then sorted by flow cytometry to isolate pure populations of transduced cells. […]

CEM-R-EYFP = experiment: DNA-G biosynthesis labeling in isogenic CEM-R line; assay type: cell-based; settings: 6-TG treatment
Procedure: as §1, §2

CEM T-ALL = experiment: Cell-Titer-Glo viability assay, 72 h; assay type: cell-based; settings: read-out: IC50 of VE-822
Procedure: (§3) Cells were plated in a 384-well plate (1,000 cells/well for suspension cell lines and 500 cells/well for adherent cell lines in 30 μL). For suspension cell lines, the plate was incubated in 37° C. for 1 h to let the cells settle. For adherent cell lines, the plate was incubated overnight to allow the cells to seed. During incubation, drugs were diluted to desired concentration by serial dilution, vehicle condition was created by adding equivalent amount of DMSO. After incubation, 10 μL of diluted drugs were added to each well, and incubated for 72 h. After incubation, Cell TiterGlo reagent was added to each well according to manufacturer's instructions (Promega, CellTiter-Glo® Luminescent Cell Viability Assay). The plates were shaken for 2 min and incubated in dark for 8 min. Luminescence readings were obtained with luminometer (Molecular devices, SpectraMax).

PANC-1 PDAC cells = experiment: Cell-Titer-Glo viability assay, 72 h; assay type: cell-based; settings: Homo sapiens, PANC-1, read-out: IC50 of VE-822
Procedure: as §3

[1] = test system: BCR-ABL p185^+/Arf^−/− pre B-ALL cells; experiment: Systemic pre B-ALL model in C57BL/6 mice, bioluminescence imaging, survival, body weight; assay type: in vivo; settings: VE-822 40 mg/kg orally once daily
Procedure: All drugs for oral administration were solubilized in Prototype 9′ (PEG-200:Transcutol:Labrasol:Tween-80 mixed in 5:3:1:1 ratio) as single agents or in combination. For i.p. administration, drugs were solubilized in PEG-400 and 1 mM Tris-HCl at a 1:1 (v:v) ratio. Dasatinib (LC Laboratories) was solubilized in 80 mM citric acid (pH 3.1, Boulos et al.) and was administered at a dose of 10 mg/kg by oral gavage. 2×10^5 luciferase expressing p185 cells were injected intravenously into C57BL/6 female mice for leukemia induction. All drugs were administered starting 6 or, 7 days after intravenous cell inoculation, when animals had developed a significant leukemic burden as monitored by bioluminescence imaging (IVIS Bioluminescence Imaging scanner). Dosing schedules are indicated in the text and figure legends. Mice were observed daily; those that became moribund during the trials (paralysis of hind limbs, significant body weight loss) were sacrificed immediately. Kaplan-Meier curves and Bioluminescence quantifications were generated using GraphPad Prism (v6.0f for Mac).
Mice were anesthetized with 2% isoflurane followed by an intraperitoneal injection of 50 μL (50 mg/ml) substrate luciferin. Mice were imaged with IVIS Bioluminescence Imaging scanner after 10 minutes after luciferin administration. […]

CEM cells [2] = experiment: Mass spectrometric assay of de novo (RNR) and salvage (dCK) contribution to dCTP and DNA-C; assay type: cell-based
Procedure: To analyze the differential utilization of de novo and nucleotide biosynthetic salvage pathways, cultured cells were incubated with stable isotope labeled DNA precursors. […] Extracted dNTP and DNA were analyzed in a triple quadrupole mass spectrometer (QQQ) using multiple reaction monitoring (MRM). The first (Q1) and third (Q3) quadrupoles function as mass filters while the second (Q2) quadrupole serves as a collision chamber. […] In Q2, the glycosidic bond of the selected dC is cleaved, releasing a protonated nucleobase (NB) fragment and a neutral deoxyribose (dR) molecule. The m/z specific NB fragments from dC is separated in Q3 and detected to generate ion chromatograms. […] Each identifier corresponded to a specific biosynthetic pathway and is defined as [x;y], where “x” is the number of heavy isotope-labeled atoms in NB and “y” is the number of heavy isotope atoms in dR. […] According to current biochemical maps of nucleotide metabolism, the [7;5] identifier can only arise from salvaging [U-^13C9,^15N3]dC into newly synthesized DNA. In contrast, a dC with a [0,5] identifier is a product of the de novo pathway. The ratio of the peak areas in the ion chromatograms of salvage [7;5] and de novo [0;5] identifiers describes the relative contributions of the two biosynthetic routes to the dCTP pool used for DNA replication.
(§4) The cells were incubated for 18 h or as indicated in the text before samples collection and processing.
Genomic DNA was extracted using the Quick-gDNA MiniPrep kit (Zymo Research, D3021) and hydrolyzed to nucleosides using the DNA Degradase Plus kit (Zymo Research, E2021) following manufacturer-supplied instructions. In the final step of DNA extraction, 50 μL of water was used to elute the DNA. A nuclease premix solution was prepared by mixing 10× buffer, DNA degradase Plus™ and water in the ratio of 2.5/1/1.5 (v/v/v). DNA hydrolysis reaction was prepared in mass spec vials by mixing 5 μL of the nuclease premix solution (5 U of enzyme) and 20 μL of eluted genomic DNA, the total volume becomes 25 μL. The samples were tapped and flicked downward prior to overnight before incubation at 37° C.
Cells were collected into microcentrifuge tube and centrifuged (450×g, 4 min, 4° C.). The supernatant was carefully aspirated. The cells were washed twice by the addition of 1 mL of cold PBS and centrifugation (450×g, 4 min 4° C.). PBS washes were aspirated. Thereafter, cells were lysed in 40 μL of 70% methanol/water (v/v), vortexed (30 s) and incubated on ice for 10 min. Then 40 μL of chloroform (Fisher) was added, vortexed (30 s) and incubated on ice for another 10 min. The samples were then centrifuged at max speed for 10 min at 4° C. Finally, the supernatant was transferred (≈25 μL) into a mass spec vial.
For genomic DNA and media analysis, an aliquot of DNA hydrolysis or media samples (20 μL) was injected directly onto a porous graphitic carbon column (Thermo Fisher Scientific Hypercarb, 100×2.1 mm, 5 μm particle size) equilibrated in solvent A (water/acetonitrile/formic acid, 95/5/0.2, v/v/v) and eluted (200 μL/min) with an increasing concentration of solvent B (acetonitrile/water/formic acid, 90/10/0.2, v/v/v): min/% B/flow rate (μL/min); 0/0/200, 5/0/200, 10/15/200, 20/15/200, 21/40/200, 25/50/200, 26/100/700, 30/100/700, 3I/O/700, 34/0/700, 35/0/200).

ATM = ATM (Homo sapiens, UniProt Q13315); settings: cited from earlier work
Sequence of ATM (Q13315 whole entry, species assumed): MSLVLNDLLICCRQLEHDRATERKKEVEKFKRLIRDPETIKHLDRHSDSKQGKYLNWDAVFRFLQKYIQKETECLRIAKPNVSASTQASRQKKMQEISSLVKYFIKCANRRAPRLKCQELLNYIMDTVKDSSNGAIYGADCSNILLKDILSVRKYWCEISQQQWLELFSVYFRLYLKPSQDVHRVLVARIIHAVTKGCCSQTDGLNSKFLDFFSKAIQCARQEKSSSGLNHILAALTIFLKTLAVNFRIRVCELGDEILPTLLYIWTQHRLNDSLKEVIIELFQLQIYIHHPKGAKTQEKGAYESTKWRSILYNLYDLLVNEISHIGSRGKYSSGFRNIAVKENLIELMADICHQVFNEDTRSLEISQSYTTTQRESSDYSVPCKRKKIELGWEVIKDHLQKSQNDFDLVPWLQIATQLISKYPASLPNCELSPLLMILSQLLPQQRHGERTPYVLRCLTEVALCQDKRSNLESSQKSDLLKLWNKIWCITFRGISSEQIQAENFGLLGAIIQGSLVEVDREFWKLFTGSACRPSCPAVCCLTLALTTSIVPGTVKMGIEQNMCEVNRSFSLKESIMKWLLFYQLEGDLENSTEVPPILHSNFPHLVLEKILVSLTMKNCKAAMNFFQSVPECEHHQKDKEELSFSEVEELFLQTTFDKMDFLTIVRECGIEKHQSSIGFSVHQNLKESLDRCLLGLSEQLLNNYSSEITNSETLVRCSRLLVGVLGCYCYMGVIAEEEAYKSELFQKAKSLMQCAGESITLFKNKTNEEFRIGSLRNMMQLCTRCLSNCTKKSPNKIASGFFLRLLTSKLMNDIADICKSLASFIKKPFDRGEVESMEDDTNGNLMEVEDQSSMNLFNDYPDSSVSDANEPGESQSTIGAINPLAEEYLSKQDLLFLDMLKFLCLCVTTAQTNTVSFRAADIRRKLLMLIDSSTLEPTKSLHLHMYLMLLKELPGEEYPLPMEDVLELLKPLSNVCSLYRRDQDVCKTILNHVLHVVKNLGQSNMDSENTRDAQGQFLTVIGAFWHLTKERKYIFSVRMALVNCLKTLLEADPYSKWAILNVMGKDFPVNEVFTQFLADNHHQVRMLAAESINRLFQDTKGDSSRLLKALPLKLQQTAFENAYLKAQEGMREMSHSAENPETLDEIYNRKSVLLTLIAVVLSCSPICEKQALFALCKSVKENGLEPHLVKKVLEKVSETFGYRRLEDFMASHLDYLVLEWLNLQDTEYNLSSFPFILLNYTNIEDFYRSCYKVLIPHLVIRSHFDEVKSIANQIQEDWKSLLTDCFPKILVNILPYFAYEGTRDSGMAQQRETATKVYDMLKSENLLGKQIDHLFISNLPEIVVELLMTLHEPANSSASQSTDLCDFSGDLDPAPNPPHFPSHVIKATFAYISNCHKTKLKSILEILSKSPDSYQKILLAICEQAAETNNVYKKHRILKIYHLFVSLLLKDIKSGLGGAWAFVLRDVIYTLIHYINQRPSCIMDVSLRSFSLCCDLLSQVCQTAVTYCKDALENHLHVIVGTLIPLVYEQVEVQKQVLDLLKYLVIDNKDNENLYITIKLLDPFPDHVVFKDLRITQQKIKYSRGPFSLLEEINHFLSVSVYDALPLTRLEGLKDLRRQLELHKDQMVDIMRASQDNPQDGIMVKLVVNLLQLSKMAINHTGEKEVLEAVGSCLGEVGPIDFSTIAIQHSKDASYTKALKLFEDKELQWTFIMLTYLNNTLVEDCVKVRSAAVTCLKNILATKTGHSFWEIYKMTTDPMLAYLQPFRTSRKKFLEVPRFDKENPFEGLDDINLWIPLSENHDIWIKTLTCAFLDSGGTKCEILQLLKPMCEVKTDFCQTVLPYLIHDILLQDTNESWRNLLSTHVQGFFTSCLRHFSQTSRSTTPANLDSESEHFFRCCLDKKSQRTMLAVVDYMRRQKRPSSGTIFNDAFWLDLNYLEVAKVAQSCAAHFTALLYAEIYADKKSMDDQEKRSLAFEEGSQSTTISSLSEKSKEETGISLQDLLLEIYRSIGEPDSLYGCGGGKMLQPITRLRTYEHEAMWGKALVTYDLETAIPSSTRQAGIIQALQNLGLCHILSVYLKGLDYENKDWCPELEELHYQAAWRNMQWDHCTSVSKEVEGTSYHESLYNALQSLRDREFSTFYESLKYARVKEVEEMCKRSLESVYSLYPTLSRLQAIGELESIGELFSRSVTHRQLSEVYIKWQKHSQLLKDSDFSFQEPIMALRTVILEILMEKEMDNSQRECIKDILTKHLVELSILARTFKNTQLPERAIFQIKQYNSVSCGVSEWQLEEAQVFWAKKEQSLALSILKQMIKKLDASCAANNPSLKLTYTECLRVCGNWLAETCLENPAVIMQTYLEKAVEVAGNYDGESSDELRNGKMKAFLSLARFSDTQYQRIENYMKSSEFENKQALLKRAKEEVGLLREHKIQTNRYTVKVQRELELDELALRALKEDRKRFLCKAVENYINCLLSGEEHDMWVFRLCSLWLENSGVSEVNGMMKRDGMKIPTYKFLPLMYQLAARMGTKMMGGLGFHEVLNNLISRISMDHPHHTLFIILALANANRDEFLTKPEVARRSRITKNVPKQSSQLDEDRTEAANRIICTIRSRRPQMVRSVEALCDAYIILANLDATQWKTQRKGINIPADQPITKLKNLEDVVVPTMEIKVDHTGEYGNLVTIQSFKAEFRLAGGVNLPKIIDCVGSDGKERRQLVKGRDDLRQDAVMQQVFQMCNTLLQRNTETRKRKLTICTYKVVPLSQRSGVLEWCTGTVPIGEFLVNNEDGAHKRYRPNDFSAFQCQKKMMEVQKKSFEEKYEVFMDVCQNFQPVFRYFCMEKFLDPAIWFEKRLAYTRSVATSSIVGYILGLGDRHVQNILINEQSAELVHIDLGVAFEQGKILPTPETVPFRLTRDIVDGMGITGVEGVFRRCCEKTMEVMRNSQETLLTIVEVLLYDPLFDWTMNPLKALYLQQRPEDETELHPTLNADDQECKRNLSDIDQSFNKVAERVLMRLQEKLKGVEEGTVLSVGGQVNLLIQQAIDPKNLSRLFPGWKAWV

CCRF-CEM T-ALL cells = experiment: EdU pulse assay of cell cycle progression after release from G1 arrest; assay type: cell-based; settings: 12 h after release from G1
Procedure: Following release from G1, cells progress to early, mid and late S phase (defined as S1, S2 and S3, respectively) and G2/M. By 18 h following release in drug-free media, 42.5% of cells progressed to S3. […] Thus, dCK represents a resistance mechanism to ATR inhibition.
Cells were treated with a CDK4/6 inhibitor, PD-0332991 (Selleckchem) for 18 h to arrest in G1 phase. Subsequently, cells were washed and released into fresh media containing 10% FBS to monitor the progression of synchronized cells throughout the cell cycle by flow cytometry analysis.
For measuring cell cycle progression of synchronous population of cells, cells were first arrested in G1 phase, then washed and released in treated media. Before collecting and fixing cells at various time points, cells were pulse-labeled with 10 μM EdU for 1 h, and then click-labeled with azide-Alexa Fluor 647 (Invitrogen; Click-iT EdU Flow cytometry kit) according to manufacturer's protocol. Total DNA content was assessed by staining with FxCycle-Violet (Invitrogen) at 1 μg/mL final concentration in PBS containing 2% FBS.

[3] = test system: Chk1 and Claspin phosphorylation in CEM T-ALL cells; experiment: Phosphoproteomics after G1 release; assay type: cell-based, human; settings: with and without DI-82; 6 and 12 h after G1 release
Procedure: Cells were treated with a CDK4/6 inhibitor, PD-0332991 (Selleckchem) for 18 h to arrest in G1 phase. Cells were then washed twice with PBS and released in fresh media with treatment at a density of 0.5×10^6 cells/ml. Cells were collected at time point 6 and 12 h and solubilized using 0.5% sodium deoxycholate, 12 mM sodium lauryl sarcosine, and 50 mM triethylammonium bicarbonate pH 8.0 with 1 mL per 5×10^7 cells with trituration and vortexing. Cell lysates were heated at 95° C. for 5 min and water bath sonicated at RT for 5 min. Bicinchoninic acid protein assay (Pierce) was performed to determine protein concentration. […] Light, medium, and heavylabeled peptides were mixed 1:1:1, diluted with 0.1% formic acid to a final concentration of 3% acetonitrile and analyzed using 180 min data-dependent nLC-MS/MS on Thermo Orbitrap XL as later discussed. […] 5 uL of each SCX fraction was analyzed using 180 min data-dependent reverse-phase nLC-MS/MS on Thermo Orbitrap XL equipped with Eksigent Spark autosampler, Eksigent 2D nanoLC, and Phoenix ST Nimbus dual column source. […] Peptides were analyzed over 180 min linear gradient of 0-40% mobile phase B (97% acetonitrile, 3% dimethylsulfoxide, and 0.1% formic acid) at 300 nL/min. […]

CEM cells [4] = experiment: Inhibition of CEM cell growth by RNR inhibitors, 72 h; assay type: cell-based
Procedure: as §3

[5] = test system: dCK activity in p185^BCR-ABLArf^−/− pre-B cells; experiment: ^3H-FAC uptake to evaluate dCK activity; assay type: cell-based, mouse; settings: after 1 h with 3-AP treatment
[6] = test system: p185^BCR-ABLArf^−/− pre-B cells; experiment: dCTP pool and DNA-C measurement with [U-^13C9,^15N3]dC and [U-^13C6]glucose; assay type: cell-based, mouse; settings: 3, 6, 9 and 12 h treatment
Procedure: Therefore, p185^BCR-ABLArf^−/− pre-B cells were labeled with [U-^13C9,^15N3]dC and [U-^13C6]glucose to measure the contribution of salvage pathway via dCK and de novo pathway via RNR, respectively.
as §4

leukemia cell growth = experiment: IC50 (cytotoxicity assay) of RNR inhibitors, Table 1; assay type: cell-based; settings: 3-AP: cell type independent
Procedure: as §3

[7] = Solubility study in phosphate buffer solution; assay type: physicochemical; settings: aqueous buffer
CEM T-ALL cells = experiment: ssDNA (F7-26) and pH2A.X measurement by FACS; assay type: cell-based; settings: 3-AP 500 nM; 0.5, 4 and 18 h
Procedure: Cells were harvested and fixed and permeabilized with cytofix/cytoperm (BD biosciences) for 15 min in dark on ice. Cells were washed and subsequently resuspended in 100 μL 1× Perm/wash buffer (BD Sciences) for 15 min on ice. Cells were washed and subsequently resuspended in 50 μL with phospho-Histone H2A.X (Ser139) antibody conjugated to fluorochrome FITC (EMD Milipore, 1:800 dilutions in perm/wash) for 20 min in dark at ambient temperature. […] Cells were harvested and fixed with ice-cold methanol:PBS (6:1) for 24 h. Staining with F7-26 monoclonal antibody (Mab) was performed according to manufacturer's instructions (EMD Milipore). Fixed cells were resuspended in 250 μL of formamide and heated in a water bath at 75° C. for 10 min. Cells were then allowed to return to room temperature and then washed with 2 ml of 1% non-fat dry milk in PBS for 15 min. Subsequently, cells were resuspended in 100 μL of anti-ssDNA Mab F7-26 (EMD Milipore, 1:10 in 5% FBS in PBS) and incubated for 45 min at room temperature. Cells were washed with PBS and stained with 100 μL of fluorescence-conjugated goat anti-mouse IgM antibody (Santa Cruz Biotechnology, 1:50) for 45 min at room temperature.

SMILES: Nc1nc2nc[nH]c2c(=S)[nH]1 [6-thioguanine]
- decrease of de novo and salvage pathway labeling of DNA-G (CEM-R-HPRT): ~10 fold
- DNA-G biosynthesis (CEM-R-EYFP): remained unaffected

SMILES: CNCc1ccc(-c2cc(-c3nc(-c4ccc(S(=O)(=O)C(C)C)cc4)cnc3N)on2)cc1 [VE-822]
- IC50 (CEM T-ALL): ~300 nM
- IC50 (PANC-1 PDAC cells): 3000 nM
- efficacy of single agent therapy in vivo [1]: not capable of eradicating p185 cells in vivo; also recorded: marginally efficacious
- effect on dCTP pool levels compared to untreated (CEM cells [2]; G1 released CEM cells): did not significantly impact
- total DNA-C labeling, less than untreated controls (CEM cells [2]; G1 released CEM cells): 30%
- IC50 (ATM): 34000 nM
- decrease in the number of cells in S2 (CCRF-CEM T-ALL cells): 16%
- phosphorylation of Chk1 and Claspin compared to untreated cells [3]: decreased phosphorylation

SMILES: NC(=S)N/N=C/c1ncccc1N [3-AP, 3-aminopyridine-2-carboxyaldehyde-thiosemicarbazone]
- IC50 lower than the other RNR inhibitors (dT, GaM, HU) (CEM cells [4]): 50 to 150 fold
- increase in ^3H-FAC uptake [5]: ~2.5 fold
- dCTP pool [6]: increased their dCTP pool
- effect on de novo dCTP pool (CEM cells [2]; 3-AP at 500 nM, 18 h): did not affect
- increase in salvage dCTP pool (CEM cells [2]; 3-AP at 500 nM, 18 h): 2 fold
- IC50 (leukemia cell growth): 1310 nM
- solubility [7]: < 300 µg/mL
- RS and DNA damage biomarker expression (ssDNA, pH2A.X), words (CEM T-ALL cells): minimally induced
